Results reported in patent publication US12692259B2, “Morpholine-containing and piperazine-containing CXCR4 modulators and uses related thereto” (Emory University, priority 2021, dated 2026).

Assays:
[1] = in vitro; details: mouse, pH 7.4; for Liver Microsomes % rem. @ 10 min. M: 3 µM; for half-life at 3 µM: microsomes
Method: Metabolic stability assay was performed at Emory University's Department of Chemistry or by Bristol Myers Squibb. The method used by Emory University's Department of Chemistry is described below.
Each method was developed in the presence of an internal standard (ISTD) d5-7-ethoxy coumarin. The column temperature was maintained at 40° C. for most of the samples otherwise noted. The detection was operated in the Agilent JetStream electrospray positive ionization using multiple reaction monitoring mode (MRM).
Other MS conditions were as follows: dwell time 100 ms; gas flow 10 L/min; nebulizer pressure 45 psi; delta EMV 200 V; fragmentor voltage and collision energy for individual compounds vary.
Test compounds were dissolved in 100% DMSO or 100% MeOH to make 10 mM stock solutions. Verapamil (Sigma Aldrich) aided as a positive control and was dissolved in 100% DMSO to make 10 mM stock solutions. The 10 mM stock solution of test and control compounds were further diluted in potassium phosphate buffer (100 mM, pH 7.4) to 500 μM to ensure the organic solvent content was <0.2%. Human liver microsomes (HLMs) were purchased from Xenotech at 20 mg/mL. NADPH (Sigma Aldrich) 10 mM stocks were prepared in deionized water.
The HLM assay was prepared in a 1.5 mL Eppendorf tube with a final volume of 1100 μL for duplicate runs. Each reaction contained phosphate buffer (928.4 μL), liver microsomes (55 μL), and test compound resulting in a final concentration of 3 μM (6.6 μL of 500 μM). The reaction was initiated with 110 μL of 10 mM NADPH. […] Before centrifugation each of the aliquoted tubes were vortexed to make sure compounds were in the solution. The aliquots were centrifuged at 12,000 g for 5 min and the supernatant removed and placed in an LC-MS vial. Each time point was assessed using LC-MS and the area, based on the extracted ion, was integrated with respect to the ISTD. […] A no-NADPH negative control with test or control compound was performed in a single run (150 μL) at the longest time point. Controls were processed and analyzed like the test compounds. Each time point was run in duplicates followed by in-between blank washes to avoid the carryover and to equilibrate the column.
The MLM assay was performed using the same procedures as those described above for the HLM assay.

[2] = Metabolic stability assay, human liver microsomes (HLM); format: in vitro ADME; details: for half-life at 3 µM: pH 7.4, read-out: Liver Microsomes T1/2 (min) H
Excerpt: Controls were processed and analyzed like the test compounds.

[3] = PAMPA assay; format: in vitro ADME; details: pH 7.4
Method: PAMPA assay was performed by BioAssay Systems Services or Bristol Myers Squibb. The method used by BioAssay Systems Services is described below.
Stock solutions in DMSO for all compounds (10 mM) were thawed. The assay was performed in duplicate by following the PAMPA-096 procedure for sample plating. 4% Lecithin in dodecane solution was prepared by resuspending the dried lecithin with 750 μL dodecane. PBS pH 7.4 was used as the diluent. Two sets of plates and equilibrium solutions were incubated for 4 hours at room temperature. Acceptor and equilibrium solutions were analyzed in a UV plate. OD280 nm was used for High Permeability Control (chloramphenicol). OD270 nm was used for Medium Permeability Control (diclofenac) and Low Permeability Control (theophylline). OD254 nm was used for the test compounds.
Data analysis was performed by using the peak absorbance for each respective test compound and Permeability Control to determine the Permeability Rate (Pe) via the following equation: […]
where ODA is the absorbance of Acceptor Solution, ODE is the absorbance of the Equilibrium Standard, and C is determined by the equation below: […]
where Donor Volume (VD) is 0.2 cm^3, Acceptor Volume (VA) is 0.3 cm^3, and Membrane Area (Area) is 0.24 cm^2.

[4] = target: T1, CYP3A4 (Homo sapiens, UniProt P08684); assay: Fluorometric CYP450 inhibition assay, CYP3A4; format: in vitro ADME; details: read-out: CYP450 IC50 (μM) 3A4
T1 construct: purchased Corning; host or cells: insect cells (microsomes)
T1 sequence (P08684 whole entry): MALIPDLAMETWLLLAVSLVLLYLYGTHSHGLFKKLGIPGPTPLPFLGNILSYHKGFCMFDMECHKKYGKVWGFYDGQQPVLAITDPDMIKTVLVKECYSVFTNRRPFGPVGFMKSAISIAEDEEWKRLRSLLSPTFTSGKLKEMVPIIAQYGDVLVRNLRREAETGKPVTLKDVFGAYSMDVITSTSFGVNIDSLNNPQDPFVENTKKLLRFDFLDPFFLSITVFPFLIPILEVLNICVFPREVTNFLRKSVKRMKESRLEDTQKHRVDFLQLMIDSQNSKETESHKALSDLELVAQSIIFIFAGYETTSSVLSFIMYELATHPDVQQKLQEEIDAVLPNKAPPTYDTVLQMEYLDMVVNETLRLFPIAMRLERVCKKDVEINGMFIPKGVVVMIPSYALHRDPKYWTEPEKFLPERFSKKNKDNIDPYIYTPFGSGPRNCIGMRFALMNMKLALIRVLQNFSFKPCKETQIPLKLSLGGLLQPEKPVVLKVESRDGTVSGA
Method: The CYP450 inhibition assays utilized microsomes from insect cells expressing human recombinant individual cDNA-expressed CYP isoforms 3A4 and 2D6, as well as the fluorogenic probe that produces fluorescent metabolite. Standard inhibitors were co-incubated with fluorogenic substrates and their inhibitory potential (IC50) was determined. Assay conditions in terms of CYP450 protein concentration and time of incubation were standardized, enzyme kinetics parameters of each fluorescent probe substrate were estimated and IC50 values of inhibitors were determined and validated on different days to check reproducibility.
A 100 mM sodium phosphate buffer was prepared and adjusted to pH 7.4. In a separate falcon tube, a 2× enzyme/substrate (E/S) solution was prepared in phosphate buffer. The final concentration of CYP2D6 (CORNING®) and 7-amido-4-methyl coumaric acid (AMMC) was 10 nM and 4 μM, and CYP3A4 (CORNING®) and 7-benzyloxy-4-(trifluoromethyl) coumarin (BFC) was 20 nM and 40 μM, respectively. In a separate falcon tube, a 2×NADPH regenerating system (NRS) was prepared in phosphate buffer.
Both enzymatic assays were conducted in a 96-well microtiter plate (Black, CORNING® COSTAR®) with a final volume of 100 μL. Preparation of the plate began with the addition of 74 μL of the E/S in the first well, and 50 μL to all subsequent wells (from 2-11). […] A 1:3 serial dilution of the test compound was conducted by removing 25 μL from the first well and diluting it with the second and so forth until the tenth row. Final concentrations yielded a range from 200 μM-0.01 μM. Well no. 11 contained no inhibitor, and well no. 12 contained no enzyme. Both were used as controls for background fluorescence. The plate was incubated for 30 min at 37° C. After incubation, the reaction was initiated by the addition of 50 μL of the 2×NRS to each well.
Immediately (within 1 min) the fluorescence was measured using a microplate reader (BIOTEK® Synergy Neo2). […] Data was exported and analyzed using Graph Pad Prism 7. […] The IC50 value was derived after the data was fitted on a 10-point curve using a four-parameter logistic regression model.

Liver Microsomes % rem. @ 10 min. M [1] [%]	Liver Microsomes % rem. @ 10 min. H [2] [%]	Papp at 4 h [3] [×10⁻⁶ cm/s]	IC50 [4] [µM]	half-life at 3 µM [1] [min]	half-life at 3 µM [2] [min]	SMILES
36.9	48.5	10.6	3.5	–	–	CN(C[C@H]1Cc2c(cccc2N2CC3COC2C3)CN1)[C@H]1CCCc2cccnc21 (stereo in doubt) [EMU-324, (S)—N—(((R)-5-((1S,4R)-2-oxa-6-azabicyclo[2.2.1]heptan-6-yl)-1,2,3,4-tetrahydroisoquinolin-3-yl)methyl)-N-methyl-5,6,7,8-tetrahydroquinolin-8-amine]
–	–	14.6	48.4	126	288	CN1CCN(c2cccc3c2C[C@@H](CN(C)[C@H]2CCCc4cccnc42)NC3)C(=O)C1 [EMU-251, 4-methyl-1-((S)-3-((methyl((S)-5,6,7,8-tetrahydroquinolin-8-yl)amino)methyl)-1,2,3,4-tetrahydroisoquinolin-5-yl)piperazin-2-one]
–	–	11.8	14.3	35	37	CN(C[C@H]1Cc2c(cccc2N2CCNC(=O)C2)CN1)[C@H]1CCCc2cccnc21 [EMU-254, 4-((R)-3-((methyl((S)-5,6,7,8-tetrahydroquinolin-8-yl)amino)methyl)-1,2,3,4-tetrahydroisoquinolin-5-yl)piperazin-2-one]
–	–	13.6	13.7	17	16	CN1CCN(c2cccc3c2C[C@H](CN(C)[C@H]2CCCc4cccnc42)NC3)CC1=O [EMU-255, 1-methyl-4-((R)-3-((methyl((S)-5,6,7,8-tetrahydroquinolin-8-yl)amino)methyl)-1,2,3,4-tetrahydroisoquinolin-5-yl)piperazin-2-one]
–	–	14.6	7.82	7.4	4.9	CCOC(=O)N1CCN(c2cccc3c2C[C@H](CN(C)[C@H]2CCCc4cccnc42)NC3)CC1 [EMU-261, ethyl 4-((R)-3-((methyl((S)-5,6,7,8-tetrahydroquinolin-8-yl)amino)methyl)-1,2,3,4-tetrahydroisoquinolin-5-yl)piperazine-1-carboxylate]
–	–	14.6	16.3	5.5	16	CC(=O)N1CCN(c2cccc3c2C[C@H](CN(C)[C@H]2CCCc4cccnc42)NC3)CC1 [EMU-262, 1-(4-((R)-3-((methyl((S)-5,6,7,8-tetrahydroquinolin-8-yl)amino)methyl)-1,2,3,4-tetrahydroisoquinolin-5-yl)piperazin-1-yl)ethan-1-one]
–	–	13.4	24.1	3	10	CN(C[C@H]1Cc2c(cccc2N2CCN(S(C)(=O)=O)CC2)CN1)[C@H]1CCCc2cccnc21 [EMU-263, (S)—N-methyl-N—(((R)-5-(4-(methylsulfonyl)piperazin-1-yl)-1,2,3,4-tetrahydroisoquinolin-3-yl)methyl)-5,6,7,8-tetrahydroquinolin-8-amine]
91.6	74.7	16.7	3.2	–	–	CN1CCN(c2cccc3c2CC(CN(C)[C@H]2CCOc4cccnc42)NC3)CC1 (stereo partly drawn) [EMU-320, (4S)—N-methyl-N-((5-(4-methylpiperazin-1-yl)-1,2,3,4-tetrahydroisoquinolin-3-yl)methyl)-3,4-dihydro-2H-pyrano[3,2-b]pyridin-4-amine]
33.8	23.7	–	> 20	–	–	CN(C[C@H]1Cc2c(cccc2N2CCN3CCOC[C@H]3C2)CN1)[C@H]1CCCc2cccnc21 [EMU-343, (S)—N—(((R)-5-((R)-hexahydropyrazino[2,1-c][1,4]oxazin-8(1H)-yl)-1,2,3,4-tetrahydroisoquinolin-3-yl)methyl)-N-methyl-5,6,7,8-tetrahydroquinolin-8-amine]
